Data on 21 compounds can be found in patent US12404239B2, “Modulators of BCL6 as ligand directed degraders” (Celgene Corporation, priority 2022, dated 2025).

A value given as a limit tells only on which side of the number the result lay.

The assay addresses T1, BCL6 (Homo sapiens, UniProt P41182).
T1 construct: HiBiT-tag knocked into endogenous BCL6 locus using CRISPR; endogenous in cells; host or cells: DHL-4_BCL6_HiBiT cells (CRISPR knock-in)
Briefly: BCL6_HiBiT degradation assay (2 h). It is filed as cell-based. The conditions noted are these: DHL-4_BCL6_HiBiT cells, read-out: YCon (% remaining maximal effect). An outline of the steps: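 DHL-4 cells carrying CRISPR HiBiT knock-in at endogenous BCL6, treated 2 h at 37 °C with 10-point 3-fold dilutions from 1-10 μM. BCL6 level read by Nano-Glo HiBiT lytic luminescence normalized to DMSO; four-parameter fit gives degradation EC50 and Yconstant (% remaining at maximal effect).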
(In general: The HiBiT peptide binds its large partner to form an active luciferase.)
Regarding `CN1C(=O)Cc2cc(Nc3nc(N4CC[C@H](Nc5ccc6c(C7CCC(=O)NC7=O)nn(C)c6c5)C(F)(F)C4)ncc3Cl)ccc21` (stereo partly drawn) [Example 67, 3-(6-(((S)-1-(5-chloro-4-((1-methyl-2-oxoindolin-5-yl)amino)pyrimidin-2-yl)-3,3-difluoropiperidin-4-yl)amino)-1-methyl-1H-indazol-3-yl)piperidine-2,6-dione], the Percent BCL6 remaining at maximal degradation (Ycon) fell in the range of 20 to 60%.

Take `CN1C(=O)Cc2cc(Nc3nc(NC4CCN(c5ccc6c(C7CCC(=O)NC7=O)nn(C)c6c5)CC4(F)F)ncc3Cl)ccc21` (stereo not drawn) [Example 68, 3-(6-(4-((5-chloro-4-((1-methyl-2-oxoindolin-5-yl)amino)pyrimidin-2-yl)amino)-3,3-difluoropiperidin-1-yl)-1-methyl-1H-indazol-3-yl)piperidine-2,6-dione]: the Percent BCL6 remaining at maximal degradation (Ycon) lay within 20 to 60%.

As to `CCN1C(=O)Cc2cc(Nc3nc(N4CC[C@@H](Nc5ccc6c(C7CCC(=O)NC7=O)nn(C)c6c5)[C@H](C)C4)ncc3Cl)ccc21` (stereo partly drawn) [Example 69, 3-(6-(((3R,4R)-1-(5-chloro-4-((1-ethyl-2-oxoindolin-5-yl)amino)pyrimidin-2-yl)-3-methylpiperidin-4-yl)amino)-1-methyl-1H-indazol-3-yl)piperidine-2,6-dione], the Percent BCL6 remaining at maximal degradation (Ycon) is below 20%.

Turning to `C[C@@H]1CN(c2ncc(Cl)c(Nc3ccc4c(c3)CC(=O)N4C)n2)CC[C@H]1Nc1ccc2c(C3CCC(=O)NC3=O)nn(C)c2c1` (stereo partly drawn) [Example 70, 3-(6-(((3R,4R)-1-(5-chloro-4-((1-methyl-2-oxoindolin-5-yl)amino)pyrimidin-2-yl)-3-methylpiperidin-4-yl)amino)-1-methyl-1H-indazol-3-yl)piperidine-2,6-dione], the Percent BCL6 remaining at maximal degradation (Ycon) was below 20%.

Regarding `C[C@@H]1CN(c2ncc(Cl)c(Nc3ccc4c(c3)CC(=O)N4C)n2)CC[C@H]1N(C)c1ccc2c(C3CCC(=O)NC3=O)nn(C)c2c1` (stereo partly drawn) [Example 73, 3-(6-(((3R,4R)-1-(5-chloro-4-((1-methyl-2-oxoindolin-5-yl)amino)pyrimidin-2-yl)-3-methylpiperidin-4-yl)(methyl)amino)-1-methyl-1H-indazol-3-yl)piperidine-2,6-dione], the Percent BCL6 remaining at maximal degradation (Ycon) is below 20%.

As for `C[C@@H]1CN(c2ncc(Cl)c(Nc3cnc4c(c3)CC(=O)N4C)n2)CC[C@H]1Nc1ccc2c(C3CCC(=O)NC3=O)nn(C)c2c1` (stereo partly drawn) [Example 74, 3-(6-(((3R,4R)-1-(5-chloro-4-((1-methyl-2-oxo-2,3-dihydro-1H-pyrrolo[2,3-b]pyridin-5-yl)amino)pyrimidin-2-yl)-3-methylpiperidin-4-yl)amino)-1-methyl-1H-indazol-3-yl)piperidine-2,6-dione], the Percent BCL6 remaining at maximal degradation (Ycon) is 20 to 60%.

On to `COCCN1C(=O)Cc2cc(Nc3nc(N4CC[C@@H](Nc5ccc6c(C7CCC(=O)NC7=O)nn(C)c6c5)[C@H](C)C4)ncc3Cl)ccc21` (stereo partly drawn) [Example 75, 3-(6-(((3R,4R)-1-(5-chloro-4-((1-(2-methoxyethyl)-2-oxoindolin-5-yl)amino)pyrimidin-2-yl)-3-methylpiperidin-4-yl)amino)-1-methyl-1H-indazol-3-yl)piperidine-2,6-dione], for which the Percent BCL6 remaining at maximal degradation (Ycon) was below 20%.

In the case of `C[C@@H]1CN(c2ncc(Cl)c(Nc3ccc4c(c3)CC(=O)N4C)n2)C[C@@H](C)N1c1ccc2c(C3CCC(=O)NC3=O)nn(C)c2c1` (stereo partly drawn) [Example 78, 3-(6-((2R,6R)-4-(5-chloro-4-((1-methyl-2-oxoindolin-5-yl)amino)pyrimidin-2-yl)-2,6-dimethylpiperazin-1-yl)-1-methyl-1H-indazol-3-yl)piperidine-2,6-dione], the Percent BCL6 remaining at maximal degradation (Ycon) fell in the range of 20 to 60%.

For the compound `C[C@H]1C[C@H](Nc2ccc3c(C4CCC(=O)NC4=O)nn(C)c3c2)CCN1c1ncc(Cl)c(Nc2ccc3c(c2)CC(=O)N3C)n1` (stereo partly drawn) [Example 81, 3-(6-(((2S,4R)-1-(5-chloro-4-((1-methyl-2-oxoindolin-5-yl)amino)pyrimidin-2-yl)-2-methylpiperidin-4-yl)amino)-1-methyl-1H-indazol-3-yl)piperidine-2,6-dione], the Percent BCL6 remaining at maximal degradation (Ycon) was below 20%.

Take `C[C@H]1C[C@H](N(C)c2ccc3c(C4CCC(=O)NC4=O)nn(C)c3c2)CCN1c1ncc(Cl)c(Nc2ccc3c(c2)CC(=O)N3C)n1` (stereo partly drawn) [Example 84, 3-(6-(((2S,4R)-1-(5-chloro-4-((1-methyl-2-oxoindolin-5-yl)amino)pyrimidin-2-yl)-2-methylpiperidin-4-yl)(methyl)amino)-1-methyl-1H-indazol-3-yl)piperidine-2,6-dione]: the Percent BCL6 remaining at maximal degradation (Ycon) was above 60%.

With `C[C@@H]1CN(c2ncc(Cl)c(Nc3ccc4c(c3)CC(=O)N4C)n2)CC[C@H]1Nc1ccc2c(C3(C)CCC(=O)NC3=O)nn(C)c2c1` (stereo partly drawn) [Example 85, 3-(6-(((3R,4R)-1-(5-chloro-4-((1-methyl-2-oxoindolin-5-yl)amino)pyrimidin-2-yl)-3-methylpiperidin-4-yl)amino)-1-methyl-1H-indazol-3-yl)-3-methylpiperidine-2,6-dione], the Percent BCL6 remaining at maximal degradation (Ycon) was below 20%.

As for `C[C@@H]1CN(c2ncc(Cl)c(Nc3ccc4c(c3)CC(=O)N4C)n2)CC[C@H]1Nc1cc2c(cn1)c(C1CCC(=O)NC1=O)nn2C` (stereo partly drawn) [Example 86, 3-(6-(((3R,4R)-1-(5-chloro-4-((1-methyl-2-oxoindolin-5-yl)amino)pyrimidin-2-yl)-3-methylpiperidin-4-yl)amino)-1-methyl-1H-pyrazolo[4,3-c]pyridin-3-yl)piperidine-2,6-dione], the Percent BCL6 remaining at maximal degradation (Ycon) is below 20%.

With `CCN1C(=O)Cc2cc(Nc3nc(N4CCC(Nc5ccc6c(C7CCC(=O)NC7=O)nn(C)c6c5)CC4)ncc3Cl)ccc21` (stereo not drawn) [Example 89, 3-(6-((1-(5-chloro-4-((1-ethyl-2-oxoindolin-5-yl)amino)pyrimidin-2-yl)piperidin-4-yl)amino)-1-methyl-1H-indazol-3-yl)piperidine-2,6-dione], the Percent BCL6 remaining at maximal degradation (Ycon) was above 60%.

As for `C[C@@H]1CN(c2ncc(Cl)c(Nc3cc4c(cc3F)N(C)C(=O)C4)n2)CC[C@H]1Nc1ccc2c(C3CCC(=O)NC3=O)nn(C)c2c1` (stereo partly drawn) [Example 92, 3-(6-(((3R,4R)-1-(5-chloro-4-((6-fluoro-1-methyl-2-oxoindolin-5-yl)amino)pyrimidin-2-yl)-3-methylpiperidin-4-yl)amino)-1-methyl-1H-indazol-3-yl)piperidine-2,6-dione], the Percent BCL6 remaining at maximal degradation (Ycon) is below 20%.

As for `C[C@@H]1CN(c2ncc(Cl)c(Nc3cc(F)c4c(c3)CC(=O)N4C)n2)CC[C@H]1Nc1ccc2c(C3CCC(=O)NC3=O)nn(C)c2c1` (stereo partly drawn) [Example 95, 3-(6-(((3R,4R)-1-(5-chloro-4-((7-fluoro-1-methyl-2-oxoindolin-5-yl)amino)pyrimidin-2-yl)-3-methylpiperidin-4-yl)amino)-1-methyl-1H-indazol-3-yl)piperidine-2,6-dione], the Percent BCL6 remaining at maximal degradation (Ycon) was below 20%.

In the case of `C[C@@H]1CN(c2ncc(Cl)c(Nc3ccc4c(c3F)CC(=O)N4C)n2)CC[C@H]1Nc1ccc2c(C3CCC(=O)NC3=O)nn(C)c2c1` (stereo partly drawn) [Example 98, 3-(6-(((3R,4R)-1-(5-chloro-4-((4-fluoro-1-methyl-2-oxoindolin-5-yl)amino)pyrimidin-2-yl)-3-methylpiperidin-4-yl)amino)-1-methyl-1H-indazol-3-yl)piperidine-2,6-dione], the Percent BCL6 remaining at maximal degradation (Ycon) was below 20%.

As for `C[C@@H]1CN(c2ncc(Cl)c(Nc3ccc4c(c3)CC(=O)N4CCN3CCOCC3)n2)CC[C@H]1Nc1ccc2c(C3CCC(=O)NC3=O)nn(C)c2c1` (stereo partly drawn) [Example 101, 3-(6-(((3R,4R)-1-(5-chloro-4-((1-(2-morpholinoethyl)-2-oxoindolin-5-yl)amino)pyrimidin-2-yl)-3-methylpiperidin-4-yl)amino)-1-methyl-1H-indazol-3-yl)piperidine-2,6-dione], the Percent BCL6 remaining at maximal degradation (Ycon) is below 20%.

In the case of `CNCCN1C(=O)Cc2cc(Nc3nc(N4CC[C@@H](Nc5ccc6c(C7CCC(=O)NC7=O)nn(C)c6c5)[C@H](C)C4)ncc3Cl)ccc21` (stereo partly drawn) [Example 104, 3-(6-(((3R,4R)-1-(5-chloro-4-((1-(2-(methylamino)ethyl)-2-oxoindolin-5-yl)amino)pyrimidin-2-yl)-3-methylpiperidin-4-yl)amino)-1-methyl-1H-indazol-3-yl)piperidine-2,6-dione], the Percent BCL6 remaining at maximal degradation (Ycon) is below 20%.

`C[C@@H]1CN(c2ncc(Cl)c(Nc3ccc4c(c3)CC(=O)N4CCC(C)(C)F)n2)CC[C@H]1Nc1ccc2c(C3CCC(=O)NC3=O)nn(C)c2c1` (stereo partly drawn) [Example 107, 3-(6-(((3R,4R)-1-(5-chloro-4-((1-(3-fluoro-3-methylbutyl)-2-oxoindolin-5-yl)amino)pyrimidin-2-yl)-3-methylpiperidin-4-yl)amino)-1-methyl-1H-indazol-3-yl)piperidine-2,6-dione]: the Percent BCL6 remaining at maximal degradation (Ycon) was below 20%.

In the case of `C[C@@H]1CN(c2ncc(Cl)c(Nc3ccc4c(c3)CC(=O)N4CC(C)(F)F)n2)CC[C@H]1Nc1ccc2c(C3CCC(=O)NC3=O)nn(C)c2c1` (stereo partly drawn) [Example 110, 3-(6-(((3R,4R)-1-(5-chloro-4-((1-(2,2-difluoropropyl)-2-oxoindolin-5-yl)amino)pyrimidin-2-yl)-3-methylpiperidin-4-yl)amino)-1-methyl-1H-indazol-3-yl)piperidine-2,6-dione], the Percent BCL6 remaining at maximal degradation (Ycon) was below 20%.

On to `C[C@@H]1CN(c2ncc(C#N)c(Nc3ccc4c(c3)CC(=O)N4C)n2)CC[C@H]1Nc1ccc2c(C3CCC(=O)NC3=O)nn(C)c2c1` (stereo partly drawn) [Example 113, 2-((3R,4R)-4-((3-(2,6-dioxopiperidin-3-yl)-1-methyl-1H-indazol-6-yl)amino)-3-methylpiperidin-1-yl)-4-((1-methyl-2-oxoindolin-5-yl)amino)pyrimidine-5-carbonitrile], for which the Percent BCL6 remaining at maximal degradation (Ycon) was below 20%.
